The values that follow come from patent US20130035326A1 (AMBIT BIOSCIENCES CORPORATION, priority 2009, published 2013).

Where only a bound is given, the exact number is not on record here.

One assay has as its system MV4-11 cells. The experiment in a line: MV4-11 cell proliferation assay (Alamar Blue). The conditions noted are these: Homo sapiens, MV4-11, 72 h, 3 days incubation. The class given is cell-based. The method, boiled down: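 Viability readout: Alamar Blue fluorescence, ex 560/em 590 nm, 3 h after reagent addition, after 3-day exposure of 64,000 MV4-11 cells per well to a 9-point half-log compound series in 0.5% FBS Iscove's. IC50 from duplicate averages, as 50% proliferation inhibition relative to negative control.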
Background: Alamar Blue is a resazurin reagent that responds to reducing activity.

For a further assay, the target named is T1, CSF-1R kinase (Homo sapiens, UniProt P07333).
T1 construct: made in house; host or cells: T7 phage display or HEK-293 cells
T1 sequence (P07333 20-972): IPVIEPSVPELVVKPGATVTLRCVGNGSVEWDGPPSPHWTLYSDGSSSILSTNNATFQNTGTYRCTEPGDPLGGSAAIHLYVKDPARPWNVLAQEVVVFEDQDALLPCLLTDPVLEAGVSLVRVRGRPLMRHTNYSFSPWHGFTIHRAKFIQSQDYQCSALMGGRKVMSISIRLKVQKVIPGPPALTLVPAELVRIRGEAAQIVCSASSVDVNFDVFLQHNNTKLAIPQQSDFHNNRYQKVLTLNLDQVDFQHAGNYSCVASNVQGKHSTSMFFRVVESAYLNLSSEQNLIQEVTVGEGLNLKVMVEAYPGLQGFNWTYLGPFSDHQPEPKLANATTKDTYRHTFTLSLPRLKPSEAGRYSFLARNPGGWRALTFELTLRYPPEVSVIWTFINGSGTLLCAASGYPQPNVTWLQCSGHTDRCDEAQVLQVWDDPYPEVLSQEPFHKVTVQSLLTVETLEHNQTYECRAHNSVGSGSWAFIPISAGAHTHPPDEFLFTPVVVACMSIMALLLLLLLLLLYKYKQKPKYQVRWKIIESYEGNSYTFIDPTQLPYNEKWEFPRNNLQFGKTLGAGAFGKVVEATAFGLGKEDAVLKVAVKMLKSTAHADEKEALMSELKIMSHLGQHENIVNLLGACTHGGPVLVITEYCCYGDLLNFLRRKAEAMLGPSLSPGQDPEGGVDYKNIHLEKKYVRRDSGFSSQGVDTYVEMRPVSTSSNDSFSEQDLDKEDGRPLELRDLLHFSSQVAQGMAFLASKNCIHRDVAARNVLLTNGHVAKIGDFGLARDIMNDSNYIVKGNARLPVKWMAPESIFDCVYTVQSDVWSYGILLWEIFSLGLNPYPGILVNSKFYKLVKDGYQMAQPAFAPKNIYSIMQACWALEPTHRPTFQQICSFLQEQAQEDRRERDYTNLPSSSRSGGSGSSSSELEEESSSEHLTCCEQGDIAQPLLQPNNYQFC
The experiment in a line: Competition binding assay, CSF-1R Kd. The method, boiled down:
(§1)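 Equilibrium Kd measured by competition against immobilized ligand; kinase as T7 phage fusion or HEK-293 DNA-tagged protein; 1 h RT; qPCR read-out of eluate.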

The next assay has as its target T2, KIT kinase (Homo sapiens, UniProt P10721).
T2 construct: made in house; host or cells: T7 phage display or HEK-293 cells
Description: Competition binding assay, KIT Kd. The method in brief: as §1

The target of the next assay is T3, FLT3 kinase (Homo sapiens, UniProt P36888).
T3 construct: made in house; host or cells: T7 phage display or HEK-293 cells
T3 sequence (P36888 27-993): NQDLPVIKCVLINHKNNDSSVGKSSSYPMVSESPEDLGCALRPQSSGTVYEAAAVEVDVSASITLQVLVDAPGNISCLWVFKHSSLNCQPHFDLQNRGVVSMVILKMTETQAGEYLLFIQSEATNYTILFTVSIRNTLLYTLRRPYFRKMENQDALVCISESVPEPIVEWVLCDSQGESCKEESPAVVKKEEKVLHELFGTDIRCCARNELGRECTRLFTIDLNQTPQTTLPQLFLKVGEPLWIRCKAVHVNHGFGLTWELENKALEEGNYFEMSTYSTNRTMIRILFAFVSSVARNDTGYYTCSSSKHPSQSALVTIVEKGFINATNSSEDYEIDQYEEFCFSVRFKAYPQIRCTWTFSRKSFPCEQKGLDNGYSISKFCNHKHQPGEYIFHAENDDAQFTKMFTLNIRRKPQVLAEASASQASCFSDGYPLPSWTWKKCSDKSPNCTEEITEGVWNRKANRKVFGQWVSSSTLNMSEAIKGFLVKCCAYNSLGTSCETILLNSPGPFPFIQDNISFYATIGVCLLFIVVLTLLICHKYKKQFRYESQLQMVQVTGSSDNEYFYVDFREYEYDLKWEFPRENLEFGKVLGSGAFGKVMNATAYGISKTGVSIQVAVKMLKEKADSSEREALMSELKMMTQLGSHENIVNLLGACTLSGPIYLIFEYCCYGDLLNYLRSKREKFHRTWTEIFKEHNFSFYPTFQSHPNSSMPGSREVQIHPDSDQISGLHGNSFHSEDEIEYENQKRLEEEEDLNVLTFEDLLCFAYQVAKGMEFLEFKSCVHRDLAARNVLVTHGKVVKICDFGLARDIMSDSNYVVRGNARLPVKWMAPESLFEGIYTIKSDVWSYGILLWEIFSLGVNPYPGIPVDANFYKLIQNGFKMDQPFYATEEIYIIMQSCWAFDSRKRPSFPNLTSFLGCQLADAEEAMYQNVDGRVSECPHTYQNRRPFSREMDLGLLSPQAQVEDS
The experiment in a line: Competition binding assay, FLT3 Kd. The method, boiled down:
as §1

Assay [1] addresses kinase panel containing either 359 or 386 distinct kinases. The experiment in a line: Selectivity score S10 from competition binding against a panel of kinases. Particulars: compounds at 10 μM; for Kinase specificty: S(10)-359 panel: panel of 359 distinct kinases; for Kinase specificty: S(10)-386 panel: panel of 386 distinct kinases. The method in brief: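 Compounds were tested at 10 μM in competition binding against T7 phage-fused or HEK-293-expressed DNA-tagged kinases with immobilized affinity ligands, 1 h at room temperature. Bound kinase was quantified by qPCR as percent of DMSO control; S10 is the fraction of distinct kinases (mutants excluded) with POC below 10.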

T2 sequence (P10721 26-976): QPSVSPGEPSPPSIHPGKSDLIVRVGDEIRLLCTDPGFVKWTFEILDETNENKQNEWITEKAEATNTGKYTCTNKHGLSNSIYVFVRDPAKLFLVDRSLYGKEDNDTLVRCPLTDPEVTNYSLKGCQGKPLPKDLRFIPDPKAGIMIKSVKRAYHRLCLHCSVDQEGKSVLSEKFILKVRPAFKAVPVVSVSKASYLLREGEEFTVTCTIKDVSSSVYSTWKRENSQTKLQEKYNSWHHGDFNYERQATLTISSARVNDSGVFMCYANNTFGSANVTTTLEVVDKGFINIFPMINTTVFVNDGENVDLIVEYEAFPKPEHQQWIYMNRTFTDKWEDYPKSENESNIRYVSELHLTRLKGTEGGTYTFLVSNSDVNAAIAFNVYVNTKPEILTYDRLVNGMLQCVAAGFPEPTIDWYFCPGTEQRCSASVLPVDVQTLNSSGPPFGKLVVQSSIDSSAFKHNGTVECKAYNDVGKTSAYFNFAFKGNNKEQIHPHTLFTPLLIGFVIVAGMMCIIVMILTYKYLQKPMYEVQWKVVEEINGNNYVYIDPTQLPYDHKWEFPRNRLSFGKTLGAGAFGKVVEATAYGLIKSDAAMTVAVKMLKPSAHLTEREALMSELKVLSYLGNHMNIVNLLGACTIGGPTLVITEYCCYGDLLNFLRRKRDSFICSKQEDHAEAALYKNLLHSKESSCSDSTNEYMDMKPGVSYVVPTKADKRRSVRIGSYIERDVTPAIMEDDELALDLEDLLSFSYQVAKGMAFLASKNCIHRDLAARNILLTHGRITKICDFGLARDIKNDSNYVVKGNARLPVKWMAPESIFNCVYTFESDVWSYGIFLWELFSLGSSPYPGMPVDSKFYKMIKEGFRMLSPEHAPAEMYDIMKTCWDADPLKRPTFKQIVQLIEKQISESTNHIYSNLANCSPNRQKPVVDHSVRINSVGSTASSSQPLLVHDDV

As a reminder, the IC50 is the midpoint of a concentration-inhibition curve. Lower therefore signals inhibition by little substance. In general, Kd refers to the concentration at which binding is half-saturated. Low readings indicate higher affinity, high ones lower affinity. In the assay on MV4-11 cells, `CN(C)CCNc1ncc(-c2ccc(NC(=O)Nc3cc(C(C)(C)C)on3)cc2)cn1` [Example 57, 1-(5-tert-butylisoxazol-3-yl)-3-(4-(2-(2-(dimethylamino)ethylamino)pyrimidin-5-yl)phenyl)urea] yielded an IC50 of 10 to 100 nM. The Kd on CSF-1R kinase is no more than 10 nM; at KIT kinase, no more than 1 nM; on FLT3 kinase it was no more than 1 nM. Moreover, the “Kinase specificty: S(10)-359 panel” value in assay [1] was “A (A≦0.1)”.
With `COCCNc1ncc(-c2ccc(NC(=O)Nc3cc(C(C)(C)C)on3)cc2)cn1` [Example 58, 1-(5-tert-butylisoxazol-3-yl)-3-{4-[2-(2-methoxyethylamino)pyrimidin-5-yl]-phenyl}urea], the IC50 in the assay on MV4-11 cells fell in the range of 1 to 10 nM. Also, the Kd at CSF-1R kinase is no more than 10 nM; on KIT kinase, no more than 1 nM; on FLT3 kinase it was no more than 1 nM. Further, the “Kinase specificty: S(10)-359 panel” value in assay [1] was “B (0.1<B≦0.2 nM)”.
On to `CC(C)(C)c1cc(NC(=O)Nc2ccc(-c3cnc(NCCN4CCOCC4)nc3)cc2F)no1` [Example 59], for which the IC50 with MV4-11 cells is 1 to 10 nM. Besides, the Kd was no more than 10 nM at CSF-1R kinase, no more than 1 nM at KIT kinase and no more than 1 nM at FLT3 kinase. In addition, the “Kinase specificty: S(10)-359 panel” value in assay [1] is on record as “B (0.1<B≦0.2 nM)”.
In turn, `CC(C)(C)c1cc(NC(=O)Nc2ccc(-c3cnc(NCCN4CCCCC4)nc3)cc2)no1` [Example 60, 1-(5-tert-butylisoxazol-3-yl)-3-(4-(2-(2-(piperidin-1-yl)ethylamino)pyrimidin-5-yl)phenyl)urea] showed an IC50 with MV4-11 cells of 10 to 100 nM. The Kd at CSF-1R kinase is no more than 10 nM; at KIT kinase, 1 to 10 nM; on FLT3 kinase, no more than 1 nM. The “Kinase specificty: S(10)-359 panel” value in assay [1] is reported as “B (0.1<B≦0.2 nM)”.
In the assay on MV4-11 cells, `CC(C)(C)c1cc(NC(=O)Nc2ccc(-c3cnc(NCCN4CCOCC4)nc3)cn2)no1` [Example 61, 1-(5-tert-butylisoxazol-3-yl)-3-{5-[2-(2-morpholin-4-yl-ethylamino)pyrimidin-5-yl]pyridin-2-yl}urea] gave an IC50 of 10 to 100 nM. The Kd on CSF-1R kinase is no more than 10 nM; at KIT kinase it was no more than 1 nM; at FLT3 kinase it was no more than 1 nM. The “Kinase specificty: S(10)-359 panel” value in assay [1] is reported as “A (A≦0.1)”.
Compound `CC(C)(C)Nc1ncc(-c2ccc(NC(=O)Nc3cc(C(C)(C)C)on3)nc2)cn1` [Example 62, 1-(5-(2-(tert-butylamino)pyrimidin-5-yl)pyridin-2-yl)-3-(5-tert-butylisoxazol-3-yl)urea] displayed an IC50 in the assay with MV4-11 cells of 100 to 500 nM. The Kd on CSF-1R kinase was in the range of 10 to 100 nM; at KIT kinase, 1 to 10 nM; on FLT3 kinase, 1 to 10 nM. Besides, the “Kinase specificty: S(10)-359 panel” value in assay [1] is “A (A≦0.1)”.
In the case of `CC(C)(C)c1cc(NC(=O)Nc2ccc(-c3cnc(NC4CCOCC4)nc3)cn2)no1` [Example 63, 1-(5-tert-butylisoxazol-3-yl)-3-(5-(2-(tetrahydro-2H-pyran-4-ylamino)pyrimidin-5-yl)pyridin-2-yl)urea], in the assay on MV4-11 cells, the IC50 lay in the range of 10 to 100 nM. Moreover, the values for the Kd at CSF-1R kinase, on KIT kinase and at FLT3 kinase were no more than 10 nM, no more than 1 nM and no more than 1 nM, respectively. For the same compound, the “Kinase specificty: S(10)-359 panel” value in assay [1] is recorded as “B (0.1<B≦0.2 nM)”.
Take `CC(C)(C)c1cc(NC(=O)Nc2ccc(-c3cnc(NC4CC4)nc3)cn2)no1` [Example 64, 1-(5-tert-butylisoxazol-3-yl)-3-[5-(2-cyclopropylaminopyrimidin-5-yl)-pyridin-2-yl]-urea]: the IC50 in the assay on MV4-11 cells lay within 10 to 100 nM. The Kd at CSF-1R kinase is no more than 10 nM; at KIT kinase it was no more than 1 nM; at FLT3 kinase, no more than 1 nM. The “Kinase specificty: S(10)-359 panel” value in assay [1] was “B (0.1<B≦0.2 nM)”.
The compound `CC(C)Nc1ncc(-c2ccc(NC(=O)Nc3cc(C(C)(C)C)on3)nc2)cn1` [Example 65, 1-(5-tert-butylisoxazol-3-yl)-3-(5-(2-(isopropylamino)pyrimidin-5-yl)pyridin-2-yl)urea] yielded an IC50 with MV4-11 cells of 10 to 100 nM. In addition, the dissociation constant Kd on CSF-1R kinase was no more than 10 nM; at KIT kinase, no more than 1 nM; on FLT3 kinase, no more than 1 nM. Also, the “Kinase specificty: S(10)-359 panel” value in assay [1] is “B (0.1<B≦0.2 nM)”.
Consider `O=C(Cc1cccc(C(F)(F)F)c1)Nc1ccc(-c2cnc(NC3CC3)nc2)cn1` [Example 66, N-(5-(2-(cyclopropylamino)pyrimidin-5-yl)pyridine-2-yl)-2-(3-(trifluoromethyl)phenyl)acetamide], for which, in the assay with MV4-11 cells, the IC50 lay in the range of 100 to 500 nM. Further, the Kd on CSF-1R kinase is no more than 10 nM; on KIT kinase, no more than 1 nM; at FLT3 kinase, 1 to 10 nM. Also, the “Kinase specificty: S(10)-359 panel” value in assay [1] is on record as “A (A≦0.1)”.
The corresponding values for `CC(C)Nc1ncc(-c2ccc(NC(=O)Cc3cccc(C(F)(F)F)c3)nc2)cn1` [Example 67, N-(5-(2-(isopropylamino)pyrimidin-5-yl)pyridin-2-yl)-2-(3-(trifluoromethyl)phenyl)acetamide] are 10 to 100 nM, 10 to 100 nM, no more than 1 nM, 1 to 10 nM and “A (A≦0.1)”.
The compound `Nc1ccc(-c2ccc(CC(=O)Nc3cc(C4(C(F)(F)F)CC4)on3)cc2)cn1` [Example 73, 2-(4-(6-aminopyridin-3-yl)phenyl)-N-(5-(1-(trifluoromethyl)cyclopropyl)isoxazol-3-yl)acetamide] showed an IC50 with MV4-11 cells of no more than 1 nM. Besides, the Kd at CSF-1R kinase was no more than 10 nM; on KIT kinase, 1 to 10 nM; at FLT3 kinase, no more than 1 nM. Moreover, the “Kinase specificty: S(10)-386 panel” value in assay [1] was “A (A≦0.1)”.
The compound `CC(C)(C)c1cc(NC(=O)Cc2ccc(-c3ccc(N)nc3)cc2F)no1` [Example 78, 2-(4-(6-aminopyridin-3-yl)-2-fluorophenyl)-N-(5-tert-butylisoxazol-3-yl)acetamide] had an IC50 in the assay on MV4-11 cells of no more than 1 nM. Also, the Kd at CSF-1R kinase is no more than 10 nM; on KIT kinase, 1 to 10 nM; at FLT3 kinase, no more than 1 nM. In assay [1], the “Kinase specificty: S(10)-386 panel” value is recorded as “B (0.1<B≦0.2 nM)”.
`CC(C)(C)c1cc(NC(=O)Cc2ccc(-c3ccc(NCCS(C)(=O)=O)nc3)cc2)no1.CS(=O)(=O)O` [Example 92, 5-(4-(2-(5-tert-butylisoxazol-3-ylamino)-2-oxoethyl)phenyl)-N-(2-(methylsulfonyl)ethyl)pyridin-2-aminium methanesulfonate]: the IC50 with MV4-11 cells lay in the range of 1 to 10 nM. Moreover, the Kd on CSF-1R kinase was no more than 10 nM; on KIT kinase, 1 to 10 nM; on FLT3 kinase, no more than 1 nM. Further, in assay [1], the “Kinase specificty: S(10)-386 panel” value was “B (0.1<B≦0.2 nM)”.
`CC(C)(C)c1cc(NC(=O)Cc2ccc(-c3cnc(N)c(F)c3)cc2)no1.CS(=O)(=O)O` [Example 94, 5-(4-(2-(5-tert-butylisoxazol-3-ylamino)-2-oxoethyl)phenyl)-3-fluoropyridin-2-aminium methanesulfonate] registered an IC50 in the assay with MV4-11 cells of no more than 1 nM. Besides, the Kd at CSF-1R kinase was no more than 10 nM; at KIT kinase, 1 to 10 nM; at FLT3 kinase it was 1 to 10 nM. In assay [1], the “Kinase specificty: S(10)-386 panel” value is “B (0.1<B≦0.2 nM)”.
`CC(C)(C)c1cc(NC(=O)Cc2ccc(-c3ccc(N)nc3F)cc2)no1.CS(=O)(=O)O` [Example 95, 5-(4-(2-(5-tert-butylisoxazol-3-ylamino)-2-oxoethyl)phenyl)-6-fluoropyridin-2-aminium methanesulfonate] registered an IC50 in the assay with MV4-11 cells of no more than 1 nM. Moreover, the values for the Kd at CSF-1R kinase, at KIT kinase and on FLT3 kinase were no more than 10 nM, 1 to 10 nM and no more than 1 nM, respectively. Moreover, in assay [1], the “Kinase specificty: S(10)-386 panel” value is reported as “A (A≦0.1)”.
In the case of `CC(C)(C)c1cc(NC(=O)Cc2ccc(-c3ccc(NCCN4CCOCC4)nc3)cc2)on1.CS(=O)(=O)O` [Example 96, 5-(4-(2-(3-tert-butylisoxazol-5-ylamino)-2-oxoethyl)phenyl)-N-(2-morpholinoethyl)pyridin-2-aminium methanesulfonate], the IC50 in the assay on MV4-11 cells lay in the range of 1 to 10 nM. The Kd on CSF-1R kinase was no more than 10 nM; at KIT kinase it was no more than 1 nM; on FLT3 kinase, no more than 1 nM. Also, the “Kinase specificty: S(10)-386 panel” value in assay [1] was “B (0.1<B≦0.2 nM)”.
